Data as given in PubChem BioAssay (NCI).
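Five compound concentrations were applied to cells in 96-well plates for 48 hours; endpoints were derived by simple linear interpolation of the resulting dose-response curve. TGI: concentration producing complete growth inhibition.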

What was measured:
Experiment in all cases: DTP human tumour cell line panel, 48 h
HCT-15 colon = system: HCT-15 colon
MDA-N = system: MDA-N
UO-31 renal = system: UO-31 renal
SN12C renal = system: SN12C renal
DU-145 prostate = system: DU-145 prostate
SF-295 CNS = system: SF-295 CNS
A498 renal = system: A498 renal
786-0 renal = system: 786-0 renal
OVCAR-4 ovarian = system: OVCAR-4 ovarian
T-47D breast = system: T-47D breast
EKVX NSCLC = system: EKVX NSCLC
HOP-92 NSCLC = system: HOP-92 NSCLC
OVCAR-5 ovarian = system: OVCAR-5 ovarian
COLO 205 colon = system: COLO 205 colon
SR leukemia = system: SR leukemia
SW-620 colon = system: SW-620 colon
SK-OV-3 ovarian = system: SK-OV-3 ovarian
HCT-116 colon = system: HCT-116 colon
SF-268 CNS = system: SF-268 CNS
K-562 leukemia = system: K-562 leukemia
CCRF-CEM leukemia = system: CCRF-CEM leukemia
RPMI-8226 leukemia = system: RPMI-8226 leukemia
HS 578T breast = system: HS 578T breast
UACC-62 melanoma = system: UACC-62 melanoma
SK-MEL-28 melanoma = system: SK-MEL-28 melanoma
CAKI-1 renal = system: CAKI-1 renal
HL-60(TB) leukemia = system: HL-60(TB) leukemia
SNB-75 CNS = system: SNB-75 CNS
MOLT-4 leukemia = system: MOLT-4 leukemia
MDA-MB-435 = system: MDA-MB-435
M14 melanoma = system: M14 melanoma
NCI-H226 lung = system: NCI-H226 lung
MDA-MB-231 breast = system: MDA-MB-231 breast
NCI/ADR-RES ovarian = system: NCI/ADR-RES ovarian
OVCAR-8 ovarian = system: OVCAR-8 ovarian
SNB-19 CNS = system: SNB-19 CNS
LOX IMVI melanoma = system: LOX IMVI melanoma
RXF 393 renal = system: RXF 393 renal
MALME-3M melanoma = system: MALME-3M melanoma
BT-549 breast = system: BT-549 breast
NCI-H23 lung = system: NCI-H23 lung
TK-10 renal = system: TK-10 renal
IGROV1 ovarian = system: IGROV1 ovarian
PC-3 prostate = system: PC-3 prostate
KM12 colon = system: KM12 colon
MCF7 breast = system: MCF7 breast
A549 NSCLC = system: A549 NSCLC
NCI-H460 lung = system: NCI-H460 lung
HCC-2998 colon = system: HCC-2998 colon
U251 CNS = system: U251 CNS
HT29 colon = system: HT29 colon
ACHN renal = system: ACHN renal
HOP-62 NSCLC = system: HOP-62 NSCLC
UACC-257 melanoma = system: UACC-257 melanoma
OVCAR-3 ovarian = system: OVCAR-3 ovarian
SK-MEL-2 melanoma = system: SK-MEL-2 melanoma
SK-MEL-5 melanoma = system: SK-MEL-5 melanoma

Measured: TGI

COc1ccc(/C=N/NS(=O)(=O)c2ccc(/C=C3\NC(=O)N(C)C3=O)cc2)cc1
> 100 µM: all assays above
